{
  "source": "the OPERA property sets (Mansouri et al. 2018)",
  "data": [
    {"conditions": "not given", "units": {"melting point": "°C", "boiling point": "°C"}, "values": [
      {"smiles": "C=C1C(=O)O[C@@H]2[C@H]1CC[C@H](C)[C@]1(O)C=CC(=O)[C@@]21C", "melting point": 164},
      {"smiles": "O=C(OC(=O)C(Cl)(Cl)Cl)C(Cl)(Cl)Cl", "log10 vapour pressure (mmHg)": -0.908},
      {"smiles": "COc1cccc2c(=O)c3c(n(C)c12)O[C@@H](C(C)C)C3", "melting point": 119},
      {"smiles": "CCOC(=O)C(C)(C)Oc1ccc(Cl)cc1", "ready biodegradability": "readily biodegradable"},
      {"smiles": "CCOP(=O)(OCC)OC(=CCl)c1ccc(Cl)cc1Cl", "log10 Koc (L/kg)": 2.47, "log10 vapour pressure (mmHg)": -5.12, "melting point": -20},
      {"smiles": "O=C(Cl)CCC(=O)Cl", "boiling point": 193, "log10 vapour pressure (mmHg)": -0.432, "melting point": 20},
      {"smiles": "CC[C@]12CCCN3CCc4c(n(c5ccccc45)[C@@](O)(C(=O)OC)C1)[C@@H]32", "melting point": 232},
      {"smiles": "CC(C)COC(=O)c1ccccc1C(=O)OCC(C)C", "boiling point": 296, "log10 Koc (L/kg)": 3.14, "ready biodegradability": "not readily biodegradable"},
      {"smiles": "Cc1cccnc1", "boiling point": 144, "log10 Henry constant (atm·m³/mol)": -5.11, "log10 vapour pressure (mmHg)": 0.782, "melting point": -18.1, "ready biodegradability": "not readily biodegradable"},
      {"smiles": "C/C=C/Cl", "boiling point": 35.2, "log10 vapour pressure (mmHg)": 2.71, "melting point": -117},
      {"smiles": "N#CC(=O)c1ccccc1", "boiling point": 206, "melting point": 32.5},
      {"smiles": "CC(O)(CCO)CCO", "ready biodegradability": "not readily biodegradable"},
      {"smiles": "Fc1ccc(F)c(F)c1F", "boiling point": 94.3, "log10 vapour pressure (mmHg)": 1.69, "melting point": -42},
      {"smiles": "OCC(CO)(CO)CO", "melting point": 260, "ready biodegradability": "readily biodegradable"},
      {"smiles": "N#CC1CCCCC1", "melting point": 11},
      {"smiles": "Cc1cncc(C)c1", "boiling point": 172, "log10 Henry constant (atm·m³/mol)": -5.16, "log10 vapour pressure (mmHg)": 0.239, "melting point": -6.6},
      {"smiles": "Cc1cc(N)ncn1", "melting point": 197},
      {"smiles": "CCc1ccc(C)cc1", "boiling point": 162, "log10 biodegradation half-life (days)": 0.602, "log10 vapour pressure (mmHg)": 0.477, "melting point": -62.3},
      {"smiles": "CCCCCCOC=O", "boiling point": 156, "melting point": -62.6},
      {"smiles": "CN(C)c1cccc2c(S(N)(=O)=O)cccc12", "melting point": 220},
      {"smiles": "c1ccc(Cc2cccc3ccccc23)cc1", "boiling point": 350, "melting point": 59.5},
      {"smiles": "Clc1ccc(Oc2ccccc2Cl)cc1Cl", "log10 vapour pressure (mmHg)": -3.85},
      {"smiles": "O=C(O)c1cccc([N+](=O)[O-])c1C(=O)O", "ready biodegradability": "not readily biodegradable"},
      {"smiles": "CCOC(=O)C(Br)C(=O)OCC", "melting point": -54},
      {"smiles": "CCNCC.Cl", "melting point": 228},
      {"smiles": "CN1C(=O)CN=C(c2ccccc2)c2cc([N+](=O)[O-])ccc21", "melting point": 82},
      {"smiles": "CC1CCc2ccccc2O1", "note": "(stereo unspecified)", "boiling point": 224},
      {"smiles": "COC(C)(C)CCOC(C)=O", "ready biodegradability": "readily biodegradable"},
      {"smiles": "Cc1cnc(C)o1", "boiling point": 118},
      {"smiles": "CCCCCCCCCCCCN", "boiling point": 259, "log10 vapour pressure (mmHg)": -2.09, "melting point": 28.3},
      {"smiles": "ClC(Cl)c1ccccc1", "boiling point": 205, "log10 vapour pressure (mmHg)": -0.328, "melting point": -17, "ready biodegradability": "readily biodegradable"},
      {"smiles": "C=C[Si](C)(C)Cl", "boiling point": 83.5},
      {"smiles": "CCC(C)CC(C)CC", "note": "(stereo unspecified)", "boiling point": 136},
      {"smiles": "CC(C)(C)c1nnc(NS(=O)(=O)c2ccccc2)s1", "melting point": 163},
      {"smiles": "CN(C)CCCCN(C)C", "boiling point": 168},
      {"smiles": "COCCOc1c(OC)cc(Cc2cnc(N)nc2N)cc1OC", "melting point": 154},
      {"smiles": "O=C1C=CCO1", "melting point": 4.5},
      {"smiles": "CCCCCCCCCCCCCC", "boiling point": 254, "log10 biodegradation half-life (days)": 1.36, "log10 vapour pressure (mmHg)": -1.94, "melting point": 5.8, "ready biodegradability": "readily biodegradable"},
      {"smiles": "Cc1ccc2c(ccc3cc4ccccc4cc32)c1", "melting point": 156},
      {"smiles": "Nc1cc2ccccc2cc1N", "melting point": 199},
      {"smiles": "C1=CCCCC1", "boiling point": 82.9, "log10 Henry constant (atm·m³/mol)": -1.34, "log10 Koa": 2.83, "log10 vapour pressure (mmHg)": 1.95, "melting point": -104, "ready biodegradability": "not readily biodegradable"},
      {"smiles": "Clc1cc(Cl)c2cc(Cl)c(Cl)c(Cl)c2c1", "log10 Koa": 8.82, "log10 vapour pressure (mmHg)": -5.68},
      {"smiles": "Cc1ccc(C#N)cc1", "boiling point": 217, "log10 vapour pressure (mmHg)": -0.504, "melting point": 29.5},
      {"smiles": "O=c1cc[nH]c2cc(C(F)(F)F)ccc12", "melting point": 268},
      {"smiles": "CSCC[C@H](NC(C)=O)C(=O)O", "melting point": 106},
      {"smiles": "CCCCOS(=O)(=O)OCCCC", "log10 vapour pressure (mmHg)": -1.93},
      {"smiles": "COC(=O)c1ccccc1Br", "boiling point": 252},
      {"smiles": "CCc1cccc(-c2ccccc2)c1", "boiling point": 284, "melting point": -27.5},
      {"smiles": "Cc1ccc(C(=O)c2ccccc2)c(C)c1", "boiling point": 322},
      {"smiles": "CC(=O)OC(C)=O", "boiling point": 140, "log10 vapour pressure (mmHg)": 0.708, "melting point": -73},
      {"smiles": "CC(C)OC(=O)C1(S(=O)(=O)c2ccc([N+](=O)[O-])cc2)CC1", "melting point": 123},
      {"smiles": "Cc1cc(O)c([N+](=O)[O-])cc1Cl", "log10 vapour pressure (mmHg)": -3.07, "melting point": 133},
      {"smiles": "CNC1CCCCC1", "boiling point": 147},
      {"smiles": "CCC(CC)C(=O)OC", "boiling point": 137},
      {"smiles": "CC(C)c1ccccc1N", "boiling point": 221},
      {"smiles": "O=Cc1ccc(O)c(Cl)c1", "melting point": 139},
      {"smiles": "CCCCCCNC(=O)C=Cc1ccc(O)c(O)c1", "melting point": 142},
      {"smiles": "CCC(C)(C)CCC(C)C", "boiling point": 153},
      {"smiles": "Nc1ccc(-c2ccc(N)cc2)cc1", "boiling point": 401, "log10 Koc (L/kg)": 3.46, "melting point": 120},
      {"smiles": "CCCC(C(N)=O)n1nnc2ccccc21", "note": "(stereo unspecified)", "melting point": 125},
      {"smiles": "CCC(O)C(C)(C)C", "note": "(stereo unspecified)", "boiling point": 135, "melting point": -5},
      {"smiles": "C1CCC(CCCCCC2CCCCC2)CC1", "boiling point": 325, "melting point": -13.6},
      {"smiles": "Cc1ccccc1S(N)(=O)=O", "ready biodegradability": "not readily biodegradable"},
      {"smiles": "Cc1c(Cl)ccc(OC(C)C(O)=Nc2ccccc2)c1Cl", "note": "(stereo unspecified)", "melting point": 146},
      {"smiles": "CCC1(C2=CCCCC2)C(=O)NC(=O)NC1=O", "melting point": 173},
      {"smiles": "C1CCC(CCCCC2CCCCC2)CC1", "boiling point": 305, "melting point": 12},
      {"smiles": "COc1ccc(C=Cc2ccc(OC)cc2)cc1", "melting point": 214},
      {"smiles": "Cc1n[nH]c(C)c1Cl", "boiling point": 221, "melting point": 118},
      {"smiles": "CCNCc1ccccc1", "boiling point": 194},
      {"smiles": "O=C1c2ccc(O)c(O)c2C(=O)c2ccc(O)c(O)c21", "melting point": 340},
      {"smiles": "FC(F)(F)C(F)(F)C(F)(F)C(F)(F)C(F)(F)C(F)(F)C(F)(F)C(F)(F)Br", "boiling point": 141},
      {"smiles": "Nc1cc(Cl)c(Cl)c(Cl)c1Cl", "log10 Koc (L/kg)": 3.03},
      {"smiles": "CCC(=O)c1ccc(N)cc1", "melting point": 140},
      {"smiles": "CC(C)Cc1ccc(CC(=O)O)cc1", "melting point": 86},
      {"smiles": "NS(=O)(=O)c1ccc(S(=O)(=O)CCO)c(F)c1", "melting point": 165},
      {"smiles": "C1CCCC1", "boiling point": 49.3, "log10 Henry constant (atm·m³/mol)": -0.818, "log10 biodegradation half-life (days)": 1.7, "log10 vapour pressure (mmHg)": 2.5, "melting point": -93.8},
      {"smiles": "O=C(O)Cc1c(F)c(F)c(F)c(F)c1F", "melting point": 109},
      {"smiles": "CN(C)c1ccc(CO)cc1", "melting point": 69},
      {"smiles": "OCC1CO1", "note": "(stereo unspecified)", "ready biodegradability": "readily biodegradable"},
      {"smiles": "CCCCCCCC(=O)OCCC", "boiling point": 226, "melting point": -46.2},
      {"smiles": "NCCCCCC(=O)O", "melting point": 205},
      {"smiles": "CCOC(=O)COc1ccc2c(=O)cc(-c3ccccc3)oc2c1", "melting point": 124},
      {"smiles": "C1=CCCCCCC1", "melting point": -12},
      {"smiles": "COc1cc(O)c2c(=O)c3cc(O)ccc3oc2c1", "melting point": 266},
      {"smiles": "Oc1ccc(Cl)c2cccnc12", "melting point": 130},
      {"smiles": "CC(C)CC(C)C(C)C", "note": "(stereo unspecified)", "boiling point": 131, "log10 biodegradation half-life (days)": 0.903, "log10 vapour pressure (mmHg)": 1.07, "melting point": -128},
      {"smiles": "O=C(O)C=Cc1ccc(O)cc1", "ready biodegradability": "readily biodegradable"},
      {"smiles": "CC(C)(Oc1ccc(Cl)cc1)C(=O)OCCOC(=O)c1cccnc1", "melting point": 100},
      {"smiles": "CCCCCCC=O", "boiling point": 153, "log10 Henry constant (atm·m³/mol)": -3.57, "log10 vapour pressure (mmHg)": 0.546, "melting point": -43.3},
      {"smiles": "CCN(CC)[N+](=O)[O-]", "boiling point": 206}
    ]},
    {"conditions": "fish", "values": [
      {"smiles": "OCC(CO)(CO)CO", "log10 BCF": 0.1},
      {"smiles": "O=C(O)c1cccc([N+](=O)[O-])c1C(=O)O", "log10 BCF": 0.72, "log10 biotransformation half-life (days)": -1.57},
      {"smiles": "CCCCCCCCCCCCCC", "log10 biotransformation half-life (days)": 1.49},
      {"smiles": "Cc1ccccc1S(N)(=O)=O", "log10 BCF": 0.41, "log10 biotransformation half-life (days)": -0.89},
      {"smiles": "CC(C)(c1ccccc1)C(C)(C)c1ccccc1", "log10 biotransformation half-life (days)": 0.87},
      {"smiles": "Nc1cc(Cl)c(Cl)c(Cl)c1Cl", "log10 BCF": 2.21},
      {"smiles": "C=C(C)CCCCCCC", "log10 biotransformation half-life (days)": -0.06}
    ]}
  ]
}
